Laboratory results published in ChEMBL document CHEMBL1139752, “New rifabutin analogs: synthesis and biological activity against Mycobacterium tuberculosis” (2006).
Converted amounts (≈) assume the structure as drawn.

Assays:
Format in all cases: functional
[1] = system: Mycobacterium avium; test: Antimycobacterial activity against Mycobacterium avium-intracellulare complex measured as susceptibility at 1 ug/mL
[2] = system: Mycobacterium tuberculosis; test: Antimycobacterial activity against rifampicin and rifabutin sensitive Mycobacterium tuberculosis
[3] = system: Mycobacterium kansasii; test: Antimycobacterial activity against Mycobacterium kansasii measured as susceptibility at 1 ug/mL
[4] = system: Mycobacterium tuberculosis; test: Antimycobacterial activity against Mycobacterium tuberculosis H37 Rv ATCC 27294

SMILES | Activity [1] | MIC [2] | Activity [3] | MIC [4]
CO[C@H]1/C=C/O[C@@]2(C)Oc3c(C)c(O)c4c(c3C2=O)C2=N[C@]3(C[C@@H](c5ccccc5)N[C@@H](c5ccccc5)C3)NC2=C(NC(=O)/C(C)=C\C=C\[C@H](C)[C@H](O)[C@@H](C)[C@H](O)[C@H](C)[C@H](OC(C)=O)[C@@H]1C)C4=O | 100% | 0.02 µg/mL (≈ 0.0212 µM) | 100% | 0.02 µg/mL (≈ 0.0212 µM)
CO[C@H]1/C=C/O[C@@]2(C)Oc3c(C)c(O)c4c(c3C2=O)C2=NC3(CCN(CC(C)C)CC3)NC2=C(NC(=O)/C(C)=C\C=C\[C@H](C)[C@H](O)[C@@H](C)[C@@H](O)[C@@H](C)[C@H](OC(C)=O)[C@@H]1C)C4=O [RIFABUTIN] | 20% | 0.02 µg/mL (≈ 0.0236 µM) | 100% | 0.02 µg/mL (≈ 0.0236 µM)
C=CCN1[C@@H](c2ccccc2)C[C@@]2(C[C@H]1c1ccccc1)N=C1C(=C3NC(=O)/C(C)=C\C=C\[C@H](C)[C@H](O)[C@@H](C)[C@H](O)[C@H](C)[C@H](OC(C)=O)[C@H](C)[C@@H](OC)/C=C/O[C@@]4(C)Oc5c(C)c(O)c(c1c5C4=O)C3=O)N2 | <=40% | 0.02 µg/mL (≈ 0.0203 µM) | 100% | 0.02 µg/mL (≈ 0.0203 µM)
CO[C@H]1/C=C/O[C@@]2(C)Oc3c(C)c(O)c4c(c3C2=O)C2=N[C@@]3(C[C@@H](c5ccc(F)cc5)N[C@@H](c5ccc(F)cc5)C3)NC2=C(NC(=O)/C(C)=C\C=C\[C@H](C)[C@H](O)[C@@H](C)[C@H](O)[C@H](C)[C@H](OC(C)=O)[C@@H]1C)C4=O | 100% | 0.02 µg/mL (≈ 0.0204 µM) | 100% | 0.02 µg/mL (≈ 0.0204 µM)
CO[C@H]1/C=C/O[C@@]2(C)Oc3c(C)c(O)c4c(O)c(c(/C=N/N5CCN(C)CC5)c(O)c4c3C2=O)NC(=O)/C(C)=C\C=C\[C@H](C)[C@H](O)[C@@H](C)[C@@H](O)[C@@H](C)[C@H](OC(C)=O)[C@@H]1C [RIFAMPIN] | 0% | 0.02 µg/mL (≈ 0.0243 µM) | 100% | 0.02 µg/mL (≈ 0.0243 µM)
CCCCN1[C@@H](c2ccccc2)C[C@@]2(C[C@H]1c1ccccc1)N=C1C(=C3NC(=O)/C(C)=C\C=C\[C@H](C)[C@H](O)[C@@H](C)[C@H](O)[C@H](C)[C@H](OC(C)=O)[C@H](C)[C@@H](OC)/C=C/O[C@@]4(C)Oc5c(C)c(O)c(c1c5C4=O)C3=O)N2 | 40% | 0.02 µg/mL (≈ 0.02 µM) | 100% | 0.02 µg/mL (≈ 0.02 µM)
C=CCCN1[C@@H](c2ccccc2)C[C@@]2(C[C@H]1c1ccccc1)N=C1C(=C3NC(=O)/C(C)=C\C=C\[C@H](C)[C@H](O)[C@@H](C)[C@H](O)[C@H](C)[C@H](OC(C)=O)[C@H](C)[C@@H](OC)/C=C/O[C@@]4(C)Oc5c(C)c(O)c(c1c5C4=O)C3=O)N2 | 80% | 0.02 µg/mL (≈ 0.0201 µM) | 100% | 0.02 µg/mL (≈ 0.0201 µM)
CO[C@H]1/C=C/O[C@@]2(C)Oc3c(C)c(O)c4c(c3C2=O)C2=N[C@@]3(C[C@@H](c5ccccc5)N[C@@H](c5ccccc5)C3)NC2=C(NC(=O)/C(C)=C\C=C\[C@H](C)[C@H](O)[C@@H](C)[C@H](O)[C@H](C)[C@H](OC(C)=O)[C@@H]1C)C4=O | 100% | 0.02 µg/mL (≈ 0.0212 µM) | 100% | 0.02 µg/mL (≈ 0.0212 µM)
COc1ccc([C@@H]2C[C@]3(C[C@H](c4ccc(OC)cc4)N2)N=C2C(=C4NC(=O)/C(C)=C\C=C\[C@H](C)[C@H](O)[C@@H](C)[C@H](O)[C@H](C)[C@H](OC(C)=O)[C@H](C)[C@@H](OC)/C=C/O[C@@]5(C)Oc6c(C)c(O)c(c2c6C5=O)C4=O)N3)cc1 | 60% | 0.02 µg/mL (≈ 0.0199 µM) | 100% | 0.02 µg/mL (≈ 0.0199 µM)
